Test system: excitatory behavior induced by spinal intrathecal injection of FeCl2 in mice
Assay: Effects of drugs on the excitatory behavior induced by spinal intrathecal injection of FeCl2 in mice
Assay type: in vivo
Conditions: for Percent inhibition (%): inhibition of mean behavioral score versus saline, 100 mg/kg orally 30 min. prior to FeCl2 injection, mice; for Average score, administration of compound (100 mg/kg): male Slc:ICP mice (5 weeks), 100 mg/kg orally 30 min. prior to FeCl2 (5 μl of 50 mM, intrathecal), observed 15 min. to 1 hr., score 0 normal to 5 death
Procedure: Effects of drugs on the excitatory behavior induced by spinal intrathecal injection of FeCl2 in mice Male Slc:ICP mice (5 weeks) were used. Each group consisted of 10 mice. 5 μl of 50 mM FeCl2 in saline was injected into spinal subarchnoid space between the 1st sacral and the 6th lumbar segment, the behavioral responses were observed from 15 min. to 1 hr. after the intrathecal injection of FeCl2 and scored as follows. |Score Behavioral responses |0: normal (no abnormal behavior) |1: vigorously biting lower abdomen or lower | extremities |2: a) extremely biting lower body with rolling | b) hyperreactivity and […] to external stimuli | c) tremor | at least one of above three behavioral changes were | observed |3: clonic convulsion |4: tonic convulsion or paralysis of lower extremities. |5: death The test compounds (100 mg/kg) were orally administered 30 min. prior to FeCl2 injection.

Row | SMILES | Percent inhibition (%) | Average score, administration of compound (100 mg/kg)
1 | COc1cccc(C=Cc2nc3c(s2)NCCC3)c1OC [Example 1, 2-(2,3-Dimethoxystyryl)-4,5,6,7-tetrahydrothiazolo[5,4-b]pyridine] | 82.6% | 0.8
2 | Cc1ccc(-c2nc3c(s2)NCCC3)cc1N.Cl.Cl [Example 3, 2-(3-Amino-4-methylphenyl)-4,5,6,7-tetrahydrothiazolo[5,4-b]pyridine dihydrochloride] | 80.9% | 0.9
3 | CCn1cc(C=Cc2nc3c(s2)NCCC3)nc1-c1ccccc1 [Example 6, 2-{2-(1-Ethyl-2-phenylimidazole-4-yl)ethenyl}-4,5,6,7-tetrahydrothiazolo[5,4-b]pyridine] | 97.9% | 0.1
4 | Cc1ccc(-c2nc3c(s2)NCCC3)cc1N [Example 2, 2-(3-Amino-4-methylphenyl)-4,5,6,7-tetrahydrothiazolo[5,4-b]pyridine] | 85.1% | 0.7
5 | Cl.Cl.Cn1cnc(C=Cc2nc3c(s2)NCCC3)c1 [Example 5, 2-{2-(1-Methylimidazole-4-yl)ethenyl}-4,5,6,7-tetrahydrothiazolo[5,4-b]pyridine dihydrochloride] | 91.3% | 0.4

— US5153201A, “Condensed thiazole compounds and use as pharmaceuticals” (Takeda Chemical Industries, Ltd., priority 1990, dated 1992)
